From PubChem BioAssay (NCI) come the findings set out here.

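Interpolation was linear, between the two tested concentrations surrounding the appropriate level; five concentrations were tested over 48 hours in 96-well plates. TGI denotes the concentration required for complete inhibition of growth.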

Common to all, as to assay: growth of human tumour cells (NCI), 48 h
The test system of assay [1] is HCT-116 colon.
In assay [2] the test system is CAKI-1 renal.
In assay [3] the test system is SK-MEL-2 melanoma.
The subject of assay [4] is MOLT-4 leukemia.
Assay [5] has as its system HOP-62 NSCLC.
For assay [6], the system named is MDA-MB-435.
In assay [7] the test system is CCRF-CEM leukemia.
Assay [8] concerns KM12 colon.
Assay [9] concerns NCI-H23 lung.
In assay [10] the test system is OVCAR-3 ovarian.
Assay [11] deals with LOX IMVI melanoma.
Assay [12] relates to NCI-H522 lung.
Assay [13] deals with SN12C renal.
The test system of assay [14] is HL-60(TB) leukemia.
For assay [15], the system named is IGROV1 ovarian.
Assay [16] deals with MDA-MB-231 breast.
The test system of assay [17] is SF-268 CNS.
Assay [18] has as its system SF-295 CNS.
Assay [19] concerns SF-539 CNS.

For the molecule `CC1=NN(c2cccc(S(=O)(=O)O)c2)C2(C1)C(Cl)C(=O)N2c1nc2ccccc2s1` (stereo not drawn), the TGI in [1] is 20.4 µM; in [2] it was 8.48 µM; in assay [3], 15.4 µM; in assay [4] it was 11.8 µM; in assay [5], 17.9 µM; in [6], 21.2 µM. The TGI in assay [7] amounted to 3.67 µM; in [8], 27.4 µM; in assay [9] it was 13.5 µM; in assay [10], 9.26 µM; in assay [11], 3.77 µM; in [12] it was 3.99 µM. The TGI was determined as 19.9 µM in [13]; 7.16 µM in assay [14]; 3.5 µM in [15]; 23.1 µM in assay [16]; 22.9 µM in [17]; 28 µM in assay [18].

For `Cc1sc2nc(N(C)C)oc(=O)c2c1C`, the TGI in [1], in assay [2], in assay [3], in assay [4], in assay [5] and in assay [6] was more than 100 µM each time. In addition, the TGI in [19], in assay [7], in assay [8], in assay [9], in [11] and in assay [12] was more than 100 µM each time. For the same molecule, the TGI in [13], in assay [14], in assay [15], in assay [16], in [17] and in [18] was more than 100 µM each time.

Regarding `[O-][n+]1nc(N2CCOCC2)nc2ccccc21`, the TGI in [1], in [2], in assay [3], in assay [4], in assay [5] and in [6] was more than 100 µM throughout. Moreover, the TGI in [19], in assay [7], in assay [8], in assay [9], in [11] and in assay [12] was more than 100 µM throughout. Also, the TGI in assay [13], in assay [14], in [15], in assay [16], in assay [17] and in assay [18] was more than 100 µM throughout.

Regarding `O=C1c2c(Br)sc(Br)c2C(NC(=O)C(F)(F)F)C1O` (stereo not drawn), the TGI was 32.6 µM in assay [1]; 31.4 µM in assay [2]; 40.9 µM in [3]; more than 100 µM in assay [4]; 54.3 µM in assay [6]; 32.1 µM in assay [19]. For the same molecule, the TGI came to 56.3 µM in [7]; 91.6 µM in assay [8]; 46.3 µM in assay [9]; 43.7 µM in [10]; 44.5 µM in assay [11]; 27.3 µM in [12]. The TGI was 34.1 µM in assay [13]; more than 100 µM in assay [14]; 42.3 µM in assay [15]; 38.5 µM in assay [16]; more than 100 µM in [17]; 35.7 µM in assay [18].

On to `COc1cc(C2C3=C(COC3=O)OC(C)(C)Oc3cc4c(cc32)OCO4)cc(OC)c1O` (stereo not drawn), for which the TGI in assay [1] was more than 20.8 µM; in assay [2], more than 46.4 µM; in assay [3], more than 100 µM; in [4], more than 100 µM; in [5] it was more than 100 µM; in assay [6] it was 0.645 µM. The TGI in assay [7] is more than 100 µM; in assay [8], more than 44.5 µM; in [9], more than 22.1 µM; in assay [10], more than 100 µM; in assay [11] it was more than 100 µM; in [12], 6.72 µM. The TGI is more than 100 µM in [13]; 1.49 µM in assay [14]; more than 100 µM in assay [15]; 11.5 µM in assay [16]; more than 100 µM in assay [17].

In the case of `CC(=O)OCC(OC(C)=O)C1C[C@H]2O[C@@H]3[C@H](C[C@H]2O1)O[C@@]1(C[C@@H]3C)C[C@H](C)[C@@H]2O[C@]3(C[C@@H]2O1)C[C@H]1O[C@H]2[C@H](C)[C@H]4OC(=O)C[C@H]5CC[C@@H]6OC7[C@H]8O[C@]9(CC[C@H]%10CC(=O)[C@H](CC[C@H]%11C[C@@H](C)C(=O)C(C[C@@H]4O[C@H]2C[C@H]1O3)O%11)O%10)CC8O[C@@H]7[C@@H](O9)[C@H]6O5` (stereo partly drawn), the TGI in [1] was more than 0.39 µM; in assay [2], more than 1 µM; in assay [3], more than 1 µM; in assay [4], more than 1 µM; in assay [5], more than 1 µM; in assay [6] it was 0.0171 µM. The TGI is more than 1 µM in assay [7]; more than 0.2 µM in assay [8]; more than 1 µM in [10]; more than 0.859 µM in assay [11]; 0.00322 µM in assay [12]; more than 1 µM in assay [13]. The TGI in assay [14], in assay [15], in assay [16] and in assay [17] was more than 1 µM throughout.

As to `CC1=NN(c2ccccc2)C2(C1)C(Cl)C(=O)N2c1nc2ccccc2s1` (stereo not drawn), the TGI in assay [1] is 51.5 µM; in [2] it was more than 100 µM; in assay [3] it was 78.1 µM; in assay [4], 78.6 µM; in [5], 82.6 µM; in [6], more than 100 µM. Besides, the TGI was 48.8 µM in [7]; more than 100 µM in [8]; 77.6 µM in assay [9]; 47.9 µM in assay [10]; 26.3 µM in assay [11]; 58.9 µM in assay [12]. In addition, the TGI in assay [13] is more than 100 µM; in [14], 55.5 µM; in assay [15], more than 100 µM; in [16], 89.2 µM; in assay [17], more than 100 µM; in [18], more than 100 µM.
